From US6552080B1, “Fungicidal compounds having a fluorovinyl-or fluoropropenyl-oxyphenyloxime moiety and process for the preparation thereof” (Korea Research Institute of Chemical Technology, priority 1999, dated 2003)
Like-named read-outs stand apart in the source and are kept apart here.

Tests used:
Erysiphae graminis = experiment: Fungicidal activity against Barley Powdery Mildew (BPM) disease; type: in vivo; details: Barley Powdery Mildew
Puccinia recondita = experiment: Fungicidal activity against Wheat Leaf Rust (WLR) disease; type: in vivo; details: Wheat Leaf Rust
[1] = system: Pyricularia oryzae Carvara KA301; type: in vivo; details: Rice Blast
Phytophthora infestans = type: in vivo; details: Tomato Late Blight
Rhizoctonia solani AG-1 = experiment: Fungicidal activity against Rice Sheath Blight (RSB) disease; details: Rice Sheath Blight
Botrytis cinerae = experiment: Fungicidal activity against Cucumber Gray Mold Rot (CGM) disease; type: in vivo; details: Cucumber Gray Mold Rot; concentration 50 ppm

SMILES	BPM (Fungicidal Activities, C.V.) (Erysiphae graminis; concentration 2 ppm)	BPM (Fungicidal Activities, C.V.) (Erysiphae graminis; concentration 10 ppm)	BPM (Fungicidal Activities, C.V.) (Erysiphae graminis; concentration 50 ppm)	WLR (Fungicidal Activities, C.V.) (Puccinia recondita; concentration 2 ppm)	WLR (Fungicidal Activities, C.V.) (Puccinia recondita; concentration 10 ppm)	WLR (Fungicidal Activities, C.V.) (Puccinia recondita; concentration 50 ppm)	RCV (Fungicidal Activities, C.V.) ([1]; concentration 2 ppm)	RCV (Fungicidal Activities, C.V.) ([1]; concentration 10 ppm)	RCV (Fungicidal Activities, C.V.) ([1]; concentration 50 ppm)	TLB (Fungicidal Activities, C.V.) (Phytophthora infestans; concentration 50 ppm)	RSB (Fungicidal Activities, C.V.) (Rhizoctonia solani AG-1; concentration 2 ppm)	RSB (Fungicidal Activities, C.V.) (Rhizoctonia solani AG-1; concentration 10 ppm)	RSB (Fungicidal Activities, C.V.) (Rhizoctonia solani AG-1; concentration 50 ppm)	CGM (Fungicidal Activities, C.V.) (Botrytis cinerae)	TLB (Fungicidal Activities, C.V.) (Phytophthora infestans; concentration 2 ppm)	TLB (Fungicidal Activities, C.V.) (Phytophthora infestans; concentration 10 ppm)
COC=C(C(=O)OC)c1ccccc1CON=C(C)c1cccc(OC(F)=Cc2ccc(Cl)cc2)c1 [Compound 54]	99%	100%	100%	97%	100%	100%	97%	99%	100%	84%	50%	80%	90%	51%	–	–
COC=C(C(=O)OC)c1ccccc1CON=C(C)c1cccc(OC(F)=Cc2ccc3ccccc3c2)c1 [Compound 56]	100%	100%	100%	95%	100%	100%	25%	80%	95%	57%	–	–	70%	5%	–	–
CNC(=O)C(=COC)c1ccccc1CON=C(C)c1cccc(OC(F)=Cc2ccc(C)cc2)c1 [Compound 57]	0%	–	98%	27%	–	98%	95%	–	99%	0%	–	–	47%	8%	–	–
CNC(=O)C(=COC)c1ccccc1CON=C(C)c1cccc(OC(F)=Cc2cc(C)cc(C)c2)c1 [Compound 58]	–	–	98%	–	–	98%	–	–	100%	0%	–	–	23%	8%	–	–
CCc1ccc(C=C(F)Oc2cccc(C(C)=NOCc3ccccc3C(=COC)C(=O)NC)c2)cc1 [Compound 59]	–	–	91%	–	–	73%	–	–	100%	0%	–	–	47%	0%	–	–
CNC(=O)C(=COC)c1ccccc1CON=C(C)c1cccc(OC(F)=Cc2ccc(OC)cc2)c1 [Compound 60]	–	–	100%	–	–	66%	–	–	100%	0%	–	–	29%	8%	–	–
CNC(=O)C(=COC)c1ccccc1CON=C(C)c1cccc(OC(F)=Cc2ccc(Cl)c(C)c2)c1 [Compound 61]	–	–	86%	–	–	43%	–	–	91%	0%	–	–	23%	33%	–	–
CNC(=O)C(=COC)c1ccccc1CON=C(C)c1cccc(OC(F)=Cc2cccc(Cl)c2)c1 [Compound 62]	0%	–	100%	83%	–	99%	92%	–	96%	0%	–	–	0%	25%	–	–
CNC(=O)C(=COC)c1ccccc1CON=C(C)c1cccc(OC(F)=Cc2ccc3c(c2)OCO3)c1 [Compound 63]	–	–	97%	–	–	90%	–	–	96%	0%	–	–	11%	33%	–	–
CO/N=C(/C(=O)OC)c1ccccc1CON=C(C)c1cccc(OC(F)=Cc2ccccc2)c1 [Compound 64]	100%	100%	100%	99%	100%	100%	100%	100%	100%	95%	45%	65%	85%	75%	87%	90%
CON=C(C(=O)OC)c1ccccc1CON=C(C)c1cccc(OC(F)=Cc2cccc(C)c2)c1 [Compound 65]	99%	100%	100%	99%	100%	100%	100%	100%	100%	0%	30%	60%	100%	71%	–	–
CON=C(C(=O)OC)c1ccccc1CON=C(C)c1cccc(OC(F)=Cc2ccc(C)cc2)c1 [Compound 66]	100%	100%	100%	99%	100%	100%	100%	100%	100%	0%	20%	65%	100%	75%	–	–
CON=C(C(=O)OC)c1ccccc1CON=C(C)c1cccc(OC(F)=Cc2ccc(C)c(C)c2)c1 [Compound 67]	99%	100%	100%	99%	100%	100%	100%	100%	100%	0%	10%	43%	100%	37%	–	–
CON=C(C(=O)OC)c1ccccc1CON=C(C)c1cccc(OC(F)=Cc2cc(C)cc(C)c2)c1 [Compound 68]	100%	100%	100%	99%	100%	100%	100%	100%	100%	20%	30%	70%	100%	56%	–	–
